Data reported in patent US4223036A, “1-(1,3-Dioxolan-2-ylmethyl)-1H-1,2,4-triazoles” (Janssen Pharmaceutica N.V., priority 1979, dated 1980).
Where a name gives a salt, the structure may show the parent alone.

Tests used:
[1] = system: Candida albicans; assay: Activity against vaginal candidosis in rats (lowest oral dose active at the 14th day after infection); format: in vivo, Female Wistar rats; design: lowest effective oral dose (vaginal candidosis in rats): unit not given here; conditions: oral once a day for two days, active at 14th day after infection; for lowest effective oral dose (vaginal candidosis in rats): Table I; for minimal effective dose: Candida albicans, 336 h
Protocol: Experiment A: Activity of Compounds (I) Against Vaginal Candidosis in Rats
Female Wistar rats of ±100 g body weight were used. They were ovariectomized and hysterectomized and after three weeks of recovery, 100 μg of oestradiol undecylate in sesame oil was given subcutaneously once a week for 3 consecutive weeks. The thus induced pseudooestrus was controlled by microscopic examination of vaginal smears. Food and water were left available ad libitum.
The rats were infected intravaginally with 8.10^5 cells of Candida albicans, grown on Sabouraud broth for 48 hours at 37° C. and diluted with saline. The date of infection varied from day +25 to day +32 after surgical intervention, depending on the appearance of signs of induced pseudo-oestrus.
The drugs under investigation were administered orally once a day for two days starting from the day of infection. For each experiment there were placebo treated controls. The results were assessed by taking vaginal smears with sterile swabs on several days after infection. The swabs were put into Sabouraud broth in petri-dishes and incubated for 48 hours a 37° C. If no growth of Candida albicans occured, i.e., when the animals were negative at the end of the experiment, this was due to drug administration because it never happened in placebo treated controls.
The Tables I, II and III below give the lowest oral dose of the drug under investigation which was found active at the 14th day after infection.

[2] = system: Candida albicans; assay: Activity against crop candidosis in turkeys (dose whereby crops of 50% of animals were completely negative); format: in vivo; conditions: medicated feed for 13 consecutive days
Protocol: Experiment B: Activity of Compounds (I) Against Crop Candidosis in Turkeys
Turkeys of 14 days old were infected in the crop with 4.10^6 Candida albicans cells, grown on Sabouraud broth for 48 hours at 37° C. and diluted with saline. The volume of the inoculum was 1 ml. The drug under investigation were premixed in 500 mg of lacton and thereafter admixed in 1000 g of meal without any additives. The concentration of the drug under investigation in the meal was expressed in mg/kg.
The animals were given the medicated feed for 13 consecutive days starting on the day of infection. At the end of the experiment all animals were sacrificed. At autopsy the crops were removed, emptied and grinded in an ultra-turrax mixer in 15 ml of sterile saline. Colony counting was done on Sabouraud agar and the results given in the Tables I, II and III represent the ED50, i.e., the dose of the drug whereby the crops of 50% of the animals were completely negative for Candida albicans.

SMILES | lowest effective oral dose (vaginal candidosis in rats) [1] | ED50 (crop candidosis in turkeys) ([2]; Table I) | further results
CC(=O)Nc1ccc(OC[C@H]2CO[C@](Cn3ccnc3)(c3ccc(Cl)cc3Cl)O2)cc1 (relative stereo) [NHCOCH3, cis-N-{4-[2-(2,4-dichlorophenyl)-2-(1H-imidazol-1-ylmethyl)-1,3-dioxolan-4-ylmethoxy]phenyl}acetamide] | 5 | 31 mg/kg of feed | 
Nc1ccc(OC[C@H]2CO[C@](Cn3ccnc3)(c3ccc(Cl)cc3Cl)O2)cc1[N+](=O)[O-] (relative stereo) [Example 4-NH2, cis-4-[2-(2,4-dichlorophenyl)-2-(1H-imidazol-1-ylmethyl)-1,3-dioxolan-4-ylmethoxy]-2-nitrobenzenamine] |  |  | minimal effective dose ([1]; Table III): 5 mg/kg; ED50 (crop candidosis in turkeys) ([2]; Table III): 31 mg/kg of feed
CS(=O)(=O)N1CCN(c2ccc(OC[C@H]3CO[C@](Cn4ccnc4)(c4ccc(Cl)cc4Cl)O3)cc2)CC1 (relative stereo) | 1.25 | 31 mg/kg of feed | 
CNC(=O)N1CCN(c2ccc(OC[C@H]3CO[C@](Cn4ccnc4)(c4ccc(Cl)cc4Cl)O3)cc2)CC1 (relative stereo) | 2.5 | 16 mg/kg of feed | 
CCOC(=O)N1CCN(c2ccc(OC[C@H]3CO[C@](Cn4ccnc4)(c4ccc(Cl)cc4Cl)O3)cc2)CC1 (relative stereo) [drawing 39, cis-ethyl 4-{4-[2-(2,4-dichlorophenyl)-2-(1H-imidazol-1-ylmethyl)-1,3-dioxolan-4-ylmethoxy]phenyl}-1-piperazinecarboxylate dihydrochloride hemihydrate] |  |  | lowest effective oral dose (vaginal candidosis in rats) ([1]; dihydrochloride hemihydrate): 10; ED50 (crop candidosis in turkeys) ([2]; Table I, dihydrochloride hemihydrate): 31 mg/kg of feed
CNC(=O)Nc1ccc(OC[C@H]2CO[C@](Cn3ccnc3)(c3ccc(Cl)cc3Cl)O2)cc1 (relative stereo) [NHCONHCH3, cis-N-{4-[2-(2,4-dichlorophenyl)-2-(1H-imidazol-1-ylmethyl)-1,3-dioxolan-4-ylmethoxy]phenyl}-N'-methylurea] | 10 | 125 mg/kg of feed | 
O=C(Nc1ccc(OC[C@H]2CO[C@](Cn3ccnc3)(c3ccc(Cl)cc3Cl)O2)cc1)c1ccc(Br)cc1 (relative stereo) | 10 | 31 mg/kg of feed | 
CC(=O)N1CCN(c2ccc(OC[C@H]3CO[C@](Cn4ccnc4)(c4ccc(Cl)cc4Cl)O3)cc2)CC1 (relative stereo) | 2.5 | 8 mg/kg of feed | 
O=C(Nc1ccc(OC[C@H]2CO[C@](Cn3ccnc3)(c3ccc(Cl)cc3Cl)O2)cc1)C(Cl)Cl (relative stereo) [NHCOCH(Cl)2, cis-2,2-dichloro-N-{4-[2-(2,4-dichlorophenyl)-2-(1H-imidazol-1-ylmethyl)-1,3-dioxolan-4-ylmethoxy]phenyl}acetamide] | 10 | 125 mg/kg of feed | 
O=CN1CCN(c2ccc(OC[C@H]3CO[C@](Cn4cncn4)(c4ccc(Cl)cc4Cl)O3)cc2)CC1 (relative stereo) [CHO, cis-4-{4-[2-(2,4-dichlorophenyl)-2-(1H-1,2,4-triazol-1-ylmethyl)-1,3-dioxolan-4-ylmethoxy]phenyl}-1-piperazinecarboxaldehyde] |  |  | minimal effective dose ([1]; Table II): 1.25 mg/kg; ED50 (crop candidosis in turkeys) ([2]; Table II): 16 mg/kg of feed
COC(=O)N1CCN(c2ccc(OC[C@H]3CO[C@](Cn4ccnc4)(c4ccc(Cl)cc4Cl)O3)cc2)CC1 (relative stereo) | 2.5 | 8 mg/kg of feed | 
CCOC(=O)N1CCN(c2ccc(OC[C@H]3CO[C@](Cn4ccnc4)(c4ccc(Cl)cc4Cl)O3)cc2)CC1 (relative stereo) [drawing 31] | 2.5 | 16 mg/kg of feed | 
Nc1ccc(OC[C@H]2CO[C@](Cn3ccnc3)(c3ccc(Cl)cc3Cl)O2)cc1 (relative stereo) [NH2, cis-4-[2-(2,4-dichlorophenyl)-2-(1H-imidazol-1-ylmethyl)-1,3-dioxolan-4-ylmethoxy]benzenamine] | 5 | 125 mg/kg of feed | 
CCCN1CCN(c2ccc(OC[C@H]3CO[C@](Cn4ccnc4)(c4ccc(Cl)cc4Cl)O3)cc2)CC1 (relative stereo) | 2.5 | 16 mg/kg of feed | 
CS(=O)(=O)N1CCN(c2ccc(OC[C@H]3CO[C@](Cn4cncn4)(c4ccc(Cl)cc4Cl)O3)cc2)CC1 (relative stereo) [SO2CH3] |  |  | minimal effective dose ([1]; Table II): 1.25 mg/kg; ED50 (crop candidosis in turkeys) ([2]; Table II): 31 mg/kg of feed
CCC(=O)Nc1ccc(OC[C@H]2CO[C@](Cn3ccnc3)(c3ccc(Cl)cc3Cl)O2)cc1 (relative stereo) [NHCOC2 H5, cis-N-{4-[2-(2,4-dichlorophenyl)-2-(1H-imidazol-1-ylmethyl)-1,3-dioxolan-4-ylmethoxy]phenyl}propanaide ethanedioate. 2-propanolate] | 10 | 31 mg/kg of feed | 
CC(=O)Nc1cccc(OC[C@H]2CO[C@](Cn3ccnc3)(c3ccc(Cl)cc3Cl)O2)c1 (relative stereo) [3 (NHCOCH3), cis-N-{3-[2-(2,4-dichlorophenyl)-2-(1H-imidazol-1-ylmethyl)-1,3-dioxolan-4-ylmethoxy]phenyl}acetamide nitrate] |  |  | minimal effective dose ([1]; Table III): 10 mg/kg; ED50 (crop candidosis in turkeys) ([2]; Table III): 63 mg/kg of feed
CCCNC(=O)N1CCN(c2ccc(OC[C@H]3CO[C@](Cn4ccnc4)(c4ccc(Cl)cc4Cl)O3)cc2)CC1 (relative stereo) [cis-4-{4-[2-(2,4-dichlorophenyl)-2-(1H-imidazol-1-yl-methyl)-1,3-dioxolan-4-ylmethoxy]phenyl}-N-propyl-1-piperazinecarboxamide dihydrate] | 2.5 | 125 mg/kg of feed | 
CCNC(=S)Nc1ccc(OC[C@H]2CO[C@](Cn3ccnc3)(c3ccc(Cl)cc3Cl)O2)cc1 (relative stereo) [NHCSNHC2 H5, cis-N-{4-[2-(2,4-dichlorophenyl)-2-(1H-imidazol-1-ylmethyl)-1,3-dioxolan-4-ylmethoxy]phenyl}-N'-ethylthiourea] | 5 | 125 mg/kg of feed | 
O=C(Nc1ccc(OC[C@H]2CO[C@](Cn3ccnc3)(c3ccc(Cl)cc3Cl)O2)cc1)c1ccc(F)cc1 (relative stereo) | 5 | 16 mg/kg of feed | 
CNC(=S)Nc1ccc(OC[C@H]2CO[C@](Cn3ccnc3)(c3ccc(Cl)cc3Cl)O2)cc1 (relative stereo) [NHCSNHCH3, cis-N-{4-[2-(2,4-dichlorophenyl)-2-(1H-imidzol-1-yl-methyl)-1,3-dioxolan-4-ylmethoxy]-phenyl}-N'-methylthiourea] | 10 | 125 mg/kg of feed | 
CCC(C)N1CCN(c2ccc(OC[C@H]3CO[C@](Cn4cncn4)(c4ccc(Cl)cc4Cl)O3)cc2)CC1 (relative stereo) [CH(CH3)CH2CH3] |  |  | minimal effective dose ([1]; Table II): 2.5 mg/kg; ED50 (crop candidosis in turkeys) ([2]; Table II): 63 mg/kg of feed
O=C(Nc1ccc(OC[C@H]2CO[C@](Cn3ccnc3)(c3ccc(Cl)cc3Cl)O2)cc1)c1ccccc1 (relative stereo) | 5 | 63 mg/kg of feed | 
